# Measurements from ChEMBL document CHEMBL3244077, “Sycnthesis of quinazoline analogues of folic acid modified at postion 10” (J Med Chem, 1977).
# What was measured:
# L1210 [1] = assay: Antitumor activity against mouse L1210 cells allografted in mouse assessed as increase in host survival at 25 mg/kg, ip administered as single dose on day 1 following tumor implantation; type: functional; conditions: 24 h, route intraperitoneal
# L1210 [2] = assay: Antitumor activity against mouse L1210 cells allografted in mouse assessed as increase in host survival at 50 mg/kg, ip administered as single dose on day 1 following tumor implantation; type: functional; conditions: 24 h, route intraperitoneal
# L1210 [3] = assay: Antitumor activity against mouse L1210 cells allografted in mouse assessed as increase in host survival at 75 mg/kg, ip administered as single dose on day 1 following tumor implantation; type: functional; conditions: 24 h, route intraperitoneal
# L1210 [4] = assay: Antitumor activity against mouse L1210 cells allografted in mouse assessed as increase in host survival at 100 mg/kg, ip administered as single dose on day 1 following tumor implantation; type: functional; conditions: 24 h, route intraperitoneal
# L1210 [5] = assay: Antitumor activity against mouse L1210 cells allografted in mouse assessed as increase in host survival at 150 mg/kg, ip administered as single dose on day 1 following tumor implantation; type: functional; conditions: 24 h, route intraperitoneal
# Mus musculus = assay: Acute toxicity in mouse […] with mouse L1210 cells at 150 mg/kg, ip administered as single dose on day 1 following tumor implantation; type: organism-based; design: dose 150 mg/kg, route intraperitoneal; conditions: in vivo
# L1210 [6] = assay: Antitumor activity against mouse L1210 cells allografted in mouse assessed as increase in host survival at 200 mg/kg, ip administered as single dose on day 1 following tumor implantation; type: functional; conditions: 24 h, route intraperitoneal
compound,measurement,setting,value
CN(Cc1cnc2nc(N)nc(N)c2n1)c1ccc(C(=O)N[C@@H](CCC(=O)O)C(=O)O)cc1 [METHOTREXATE],survival at 25 mg/kg,L1210 [1],68%
same,survival at 50 mg/kg,L1210 [2],61%
same,survival at 75 mg/kg,L1210 [3],48%
same,survival at 100 mg/kg,L1210 [4],81%
Nc1nc(O)c2cc(CSc3ccc(C(=O)N[C@@H](CCC(=O)O)C(=O)O)cc3)ccc2n1,survival at 100 mg/kg,L1210 [4],9%
same,survival at 150 mg/kg,L1210 [5],22%
same,Activity,Mus musculus,Non-toxic
Nc1nc(O)c2cc(CCc3ccc(C(=O)N[C@@H](CCC(=O)O)C(=O)O)cc3)ccc2n1,survival at 50 mg/kg,L1210 [2],14%
same,survival at 75 mg/kg,L1210 [3],18%
same,survival at 150 mg/kg,L1210 [5],23%
same,Activity,Mus musculus,Non-toxic
Nc1nc(O)c2cc(COc3ccc(C(=O)N[C@@H](CCC(=O)O)C(=O)O)cc3)ccc2n1,survival at 75 mg/kg,L1210 [3],6%
same,survival at 150 mg/kg,L1210 [5],28%
same,survival at 200 mg/kg,L1210 [6],14%
same,Activity,Mus musculus,Non-toxic
